Laboratory results published in patent publication US11878975B2, “Substituted indole compounds useful as TLR inhibitors” (BRISTOL-MYERS SQUIBB COMPANY, priority 2017, dated 2024).
pIC50: −log10 of the molar value.

Tests used:
Type in all cases: cell-based
[1] = biological target: T1, human TLR9 (Homo sapiens, UniProt Q9NR96); test: TLR9 inhibition reporter assay (HEK-Blue cells, SEAP reporter, ODN2006 stimulation); settings: HEK-Blue cells overexpressing human TLR9, SEAP reporter, ODN2006 5 nM
T1 construct: host or cells: HEK-Blue cells
T1 sequence (Q9NR96 26-1032): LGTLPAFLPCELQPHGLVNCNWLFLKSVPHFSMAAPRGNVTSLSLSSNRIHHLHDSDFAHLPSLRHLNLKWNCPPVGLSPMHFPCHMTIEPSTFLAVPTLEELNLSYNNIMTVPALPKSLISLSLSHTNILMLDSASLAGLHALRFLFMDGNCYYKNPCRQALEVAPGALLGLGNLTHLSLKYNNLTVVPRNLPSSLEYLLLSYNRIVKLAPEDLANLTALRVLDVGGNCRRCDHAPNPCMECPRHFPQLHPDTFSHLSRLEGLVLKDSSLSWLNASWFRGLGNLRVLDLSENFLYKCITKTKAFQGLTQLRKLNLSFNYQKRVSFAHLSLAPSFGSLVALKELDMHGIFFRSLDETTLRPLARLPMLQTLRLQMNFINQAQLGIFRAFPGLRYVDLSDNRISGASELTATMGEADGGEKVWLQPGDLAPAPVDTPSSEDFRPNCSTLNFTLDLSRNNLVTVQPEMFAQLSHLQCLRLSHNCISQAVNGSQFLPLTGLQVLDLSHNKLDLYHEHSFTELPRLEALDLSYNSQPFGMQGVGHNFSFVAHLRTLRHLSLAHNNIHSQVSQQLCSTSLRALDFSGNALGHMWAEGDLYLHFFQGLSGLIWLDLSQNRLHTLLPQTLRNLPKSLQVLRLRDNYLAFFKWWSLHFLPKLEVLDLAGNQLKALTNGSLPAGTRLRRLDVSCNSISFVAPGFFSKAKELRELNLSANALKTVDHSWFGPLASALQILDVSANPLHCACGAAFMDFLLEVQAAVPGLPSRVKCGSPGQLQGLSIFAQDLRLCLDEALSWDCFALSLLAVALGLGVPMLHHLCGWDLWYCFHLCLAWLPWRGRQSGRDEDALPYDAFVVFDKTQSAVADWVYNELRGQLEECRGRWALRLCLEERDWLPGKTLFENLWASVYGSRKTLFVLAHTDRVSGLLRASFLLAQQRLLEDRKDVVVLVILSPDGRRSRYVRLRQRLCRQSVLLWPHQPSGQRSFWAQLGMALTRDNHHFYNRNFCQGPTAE
Outline: (§1)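 Percent inhibition is derived from SEAP signal, scaled between agonist-plus-DMSO wells and wells given a known inhibitor. Test compounds (0.05 nM–50 μM) are pre-incubated 30 min at room temperature before agonist addition (TLR7: 7.5 μM gardiquimod; TLR8: 15.9 μM R848; TLR9: 5 nM ODN2006) and 22 h culture at 37 °C.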

[2] = biological target: T2, human TLR8 (Homo sapiens, UniProt Q9NR97); test: TLR8 inhibition reporter assay (HEK-Blue cells, SEAP reporter, R848 stimulation); settings: HEK-Blue cells overexpressing human TLR8, SEAP reporter, R848 15.9 μM
T2 construct: host or cells: HEK-Blue cells
T2 sequence (Q9NR97 27-1041): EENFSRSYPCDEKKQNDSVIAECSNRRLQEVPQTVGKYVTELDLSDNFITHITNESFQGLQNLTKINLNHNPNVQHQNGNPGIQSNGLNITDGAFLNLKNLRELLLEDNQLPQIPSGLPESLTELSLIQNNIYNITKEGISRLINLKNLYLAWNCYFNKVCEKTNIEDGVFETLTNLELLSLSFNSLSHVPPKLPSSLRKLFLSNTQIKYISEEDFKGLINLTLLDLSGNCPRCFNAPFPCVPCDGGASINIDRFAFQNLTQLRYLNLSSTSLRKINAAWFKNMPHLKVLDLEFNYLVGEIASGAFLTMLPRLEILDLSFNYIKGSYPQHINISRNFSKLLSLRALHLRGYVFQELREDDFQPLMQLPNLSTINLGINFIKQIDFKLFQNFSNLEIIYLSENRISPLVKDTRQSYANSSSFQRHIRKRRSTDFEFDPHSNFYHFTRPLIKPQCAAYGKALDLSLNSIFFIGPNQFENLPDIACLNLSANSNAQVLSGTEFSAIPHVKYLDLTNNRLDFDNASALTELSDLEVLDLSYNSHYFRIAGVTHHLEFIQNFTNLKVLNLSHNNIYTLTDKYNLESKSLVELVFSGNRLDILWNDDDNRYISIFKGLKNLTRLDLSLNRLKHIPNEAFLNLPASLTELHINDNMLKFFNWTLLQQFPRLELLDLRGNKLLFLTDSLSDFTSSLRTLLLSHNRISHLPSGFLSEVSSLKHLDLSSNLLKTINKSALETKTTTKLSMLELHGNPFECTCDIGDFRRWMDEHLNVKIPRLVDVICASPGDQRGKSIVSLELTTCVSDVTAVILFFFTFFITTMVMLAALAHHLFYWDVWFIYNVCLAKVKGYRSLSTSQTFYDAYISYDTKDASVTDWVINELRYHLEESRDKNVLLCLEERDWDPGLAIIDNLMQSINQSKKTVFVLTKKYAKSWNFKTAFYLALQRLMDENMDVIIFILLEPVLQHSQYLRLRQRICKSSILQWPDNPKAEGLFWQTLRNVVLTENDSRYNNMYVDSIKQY
Outline: as §1

[3] = biological target: T3, human TLR7 (Homo sapiens, UniProt Q9NYK1); test: TLR7 inhibition reporter assay (HEK-Blue cells, SEAP reporter, gardiquimod stimulation); settings: HEK-Blue cells overexpressing human TLR7, SEAP reporter, gardiquimod 7.5 μM
T3 construct: host or cells: HEK-Blue cells
T3 sequence (Q9NYK1 27-1049): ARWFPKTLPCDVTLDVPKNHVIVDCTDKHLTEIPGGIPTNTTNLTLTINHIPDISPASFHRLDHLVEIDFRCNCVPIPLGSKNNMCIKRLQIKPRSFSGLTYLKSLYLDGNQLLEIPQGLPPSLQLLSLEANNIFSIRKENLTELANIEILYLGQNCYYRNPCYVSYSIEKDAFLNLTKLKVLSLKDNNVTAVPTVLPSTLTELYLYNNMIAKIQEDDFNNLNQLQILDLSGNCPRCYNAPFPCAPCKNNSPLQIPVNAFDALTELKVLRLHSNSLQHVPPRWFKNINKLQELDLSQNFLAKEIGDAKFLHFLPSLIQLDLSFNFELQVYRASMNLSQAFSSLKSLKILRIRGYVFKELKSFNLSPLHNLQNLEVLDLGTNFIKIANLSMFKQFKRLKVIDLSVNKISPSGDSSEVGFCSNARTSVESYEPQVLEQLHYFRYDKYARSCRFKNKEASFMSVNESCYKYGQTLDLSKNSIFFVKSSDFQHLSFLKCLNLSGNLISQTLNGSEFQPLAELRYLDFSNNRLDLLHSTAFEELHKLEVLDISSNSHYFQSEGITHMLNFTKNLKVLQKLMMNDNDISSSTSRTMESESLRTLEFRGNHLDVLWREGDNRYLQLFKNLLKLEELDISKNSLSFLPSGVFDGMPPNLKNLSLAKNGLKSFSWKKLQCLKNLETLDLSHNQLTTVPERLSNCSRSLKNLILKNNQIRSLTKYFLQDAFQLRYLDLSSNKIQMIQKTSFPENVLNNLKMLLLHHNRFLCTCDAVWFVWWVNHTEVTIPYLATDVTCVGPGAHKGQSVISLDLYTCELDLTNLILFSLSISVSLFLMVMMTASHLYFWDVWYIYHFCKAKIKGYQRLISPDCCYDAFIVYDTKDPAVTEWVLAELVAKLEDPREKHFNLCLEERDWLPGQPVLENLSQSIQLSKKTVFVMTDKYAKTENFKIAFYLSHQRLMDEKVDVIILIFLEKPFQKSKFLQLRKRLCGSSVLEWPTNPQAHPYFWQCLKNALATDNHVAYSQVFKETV
Outline: as §1

Structure (SMILES)	pIC50 [1]	pIC50 [2]	pIC50 [3]
Cc1c(-c2[nH]c3ccc(C4CN(CC(=O)N(C)C)CCO4)cc3c2C(C)C)cn2ncnc2c1C (stereo not drawn) [Example 321]	< 4.30	7.60	7.82
Cc1cc(-c2[nH]c3ccc(C4CN(C5COC5)C4)cc3c2C(C)C)cn2ncnc12 [Example 271]	4.54	7.66	8.30
Cc1c(-c2[nH]c3ccc(C4CC(NC5COC5)C4)cc3c2C(C)C)cn2ncnc2c1C (stereo not drawn) [Example 575]	4.65	8.96	8.40
Cc1cc(-c2[nH]c3ccc(C4CCCN(C(=O)C5(C)CC5)C4)cc3c2C(C)C)cc(C)n1 (stereo not drawn) [Example 202]	4.91	7.46	8.40
COc1cc(-c2[nH]c3ccc(C4CCC(NC(=O)CNC5COC5)CC4)cc3c2C(C)C)cn2ncnc12 (stereo not drawn) [Example 137]	4.58	8.31	8.70
Cc1cc(-c2[nH]c3ccc(CCN4CCCCC4)cc3c2C(C)C)cn(C)c1=O [Example 409]	4.81	8.52	7.64
Cc1cc(-c2[nH]c3ccc(C4CN(CC(C)(C)O)C(C)(C)CO4)cc3c2C(C)C)cn2ncnc12 (stereo not drawn) [Example 385]	4.69	7.32	7.85
COc1ccc(-c2[nH]c3ccc(C4CCC(O)CC4)cc3c2C(C)C)cc1OC (stereo not drawn) [Example 451]	4.71	6.62	6.86
CNC(=O)CN1CC(c2ccc3[nH]c(-c4cn5ncnc5c(C)c4C)c(C(C)C)c3c2)OCC1(C)C (stereo not drawn) [Example 389]	< 4.30	7.29	7.66
COc1cc(-c2[nH]c3ccc(C4CCC(NC(=O)CNC5(C)COC5)CC4)cc3c2C(C)C)cn2ncnc12 (stereo not drawn) [Example 135]	4.36	7.92	8.70

Now those with a higher pIC50 [1], led by results:

pIC50 [1]	pIC50 [2]	pIC50 [3]	Structure (SMILES)
5.36	7.89	9.00	COc1cc(-c2[nH]c3ccc(C4CCC(NC5(C)CC5)CC4)cc3c2C(C)C)cn2ncnc12 (stereo not drawn) [Example 43]
6.28	8.07	8.05	CN[C@@H](C)C(=O)N1CCCC(c2ccc3[nH]c(-c4cc(C)nc(C)c4)c(C(C)C)c3c2)C1 (stereo partly drawn) [Example 219]
6.16	7.92	8.70	CNC1CCC(c2ccc3[nH]c(-c4cn5cnnc5c(C)c4C)c(C(C)C)c3c2)CC1 (stereo not drawn) [Example 530]
6.23	7.25	7.54	Cc1cc(-c2[nH]c3ccc(C4CCC(N5CCN(C)CC5)CC4)cc3c2C(C)C)cc(C)n1 (single isomer, unassigned) [Example 37]
6.12	8.72	9.36	Cc1cc(-c2[nH]c3ccc(C4CNC4)cc3c2C(C)C)cn2ncnc12 [Example 257, 6-(5-(azetidin-3-yl)-3-isopropyl-1H-indol-2-yl)-8-methyl-[1,2,4]triazolo[1,5-a]pyridine]
5.88	9.24	9.64	CNC1CCC(c2ccc3[nH]c(-c4cn5ncnc5c(C)c4C)c(C(C)C)c3c2)CC1 (stereo not drawn) [Example 89]
5.17	7.77	7.96	Cc1c(-c2[nH]c3ccc(CC4CCCN4C4CCOCC4)cc3c2C(C)C)cn2cnnc2c1C (stereo not drawn) [Example 429]
5.43	7.62	8.22	CNCC(=O)NC1(C)CCC(c2ccc3[nH]c(-c4cc(OC)c5ncnn5c4)c(C(C)C)c3c2)CC1 (stereo not drawn) [Example 155, N-(4-(3-isopropyl-2-(8-methoxy-[1,2,4]triazolo[1,5-a]pyridin-6-yl)-1H-indol-5-yl)-1-methylcyclohexyl)-2-(methylamino)acetamide]
5.86	9.09	9.77	CNC1CCC(c2ccc3[nH]c(-c4cc(C)c5ncnn5c4)c(C(C)C)c3c2)CC1 (single isomer, unassigned) [Example 56]
5.64	8.11	8.40	COc1cc(-c2[nH]c3ccc(C4CCC(N5CC(C)OC(C)C5)CC4)cc3c2C(C)C)cn2ncnc12 (stereo not drawn) [Example 41]
5.22	8.82	9.36	CCN(C)CC(=O)NC1CCC(c2ccc3[nH]c(-c4cc(OC)c5ncnn5c4)c(C(C)C)c3c2)CC1 (stereo not drawn) [Example 132, 2-(ethyl(methyl)amino)-N-(4-(3-isopropyl-2-(8-methoxy-[1,2,4]triazole [1,5-a]pyridin-6-yl)-1H-indol-5-yl)cyclohexyl)acetamide]
5.43	7.82	7.38	COCCN1CCOC(c2ccc3[nH]c(-c4cc(C)nc(C)c4)c(C(C)C)c3c2)C1 (stereo not drawn) [Example 352]
5.43	7.55	8.40	Cc1c(-c2[nH]c3ccc(C4CC5CN(C6CCOC6)CC5C4)cc3c2C(C)C)cn2cnnc2c1C (stereo not drawn) [Example 562]
5.33	7.60	8.30	Cc1c(-c2[nH]c3ccc(C4CC5CN(CC6(C)COC6)CC5C4)cc3c2C(C)C)cn2cnnc2c1C (stereo not drawn) [Example 561]
